Consider 15 compounds from ChEMBL document CHEMBL5096175, “An insight into the medicinal attributes of berberine derivatives: A review” (Bioorg Med Chem, 2021).

≈ marks a conversion by molar mass, not a printed value.

The test system of one assay is HEK-293T. Briefly: Antiinflammatory activity against HEK-293T cells assessed as inhibition of TNF-alpha induced NF-kappaB activation at 5 uM preincubated for 2 hrs followed by TNFalpha stimulation for 6 hrs by dual-luciferase reporter assay relative to control. Format: functional. The note with it: Homo sapiens, time 8 hrs.
Assay [1] relates to HeLa. Briefly: Cytotoxicity against human HeLa cells assessed as inhibition of cell proliferation incubated for 24 hrs by MTT assay. Format: functional, cell-based.
The subject of another assay is HepG2. Briefly: Cytotoxicity against human HepG2 cells assessed as inhibition of cell proliferation incubated for 24 hrs by MTT assay. It counts as functional, cell-based. The note with it: HepG2, 24 h.
The subject of a further assay is MCF7. Briefly: Cytotoxicity against human MCF7 cells assessed as inhibition of cell proliferation incubated for 24 hrs by MTT assay. Format: functional, cell-based. The note with it: MCF7, 24 h.
The next assay concerns PC-12. Briefly: Cytotoxicity against […] cells assessed as inhibition of cell proliferation incubated for 24 hrs by MTT assay. Format: functional, cell-based. The settings on record: Rattus norvegicus, PC-12, 24 h.
The test system of assay [2] is A549. The experiment in a line: Cytotoxicity against human A549 cells assessed as inhibition of cell proliferation incubated for 24 hrs by MTT assay. It counts as functional, cell-based. The settings on record: A549, 24 h.
A further assay has as its system Candida albicans. Briefly: Antifungal activity against Candida albicans ATCC 90023 assessed as inhibition of fungal growth incubated for 24 hrs. Format: functional.
For another assay, the system named is Candida parapsilosis. The experiment in a line: Antifungal activity against Candida parapsilosis ATCC 22019 assessed as inhibition of fungal growth incubated for 24 hrs. Format: functional. The settings on record: Lodderomyces parapsilosis.
A further assay has as its system Streptococcus pyogenes. Briefly: Antibacterial activity against Streptococcus pyogenes CICC 10356 assessed as inhibition of bacterial growth incubated for 24 hrs by broth microdilution method. Format: functional.
The next assay relates to Shigella dysenteriae. The experiment in a line: Antibacterial activity against Shigella dysenteriae CICC 23829 assessed as inhibition of bacterial growth incubated for 24 hrs by broth microdilution method. It counts as functional.
For assay [3], the system named is Staphylococcus aureus. The experiment in a line: Antibacterial activity against methicillin-resistant Staphylococcus aureus ATCC 700699 assessed as inhibition of bacterial growth incubated for 24 hrs by broth microdilution method. Format: functional.
The next assay has as its system Clostridium perfringens. The experiment in a line: Antibacterial activity against Clostridium perfringens CICC 22949 assessed as inhibition of bacterial growth incubated for 24 hrs by broth microdilution method. It counts as functional.
A further assay has as its system Pseudomonas aeruginosa. The experiment in a line: Antibacterial activity against Pseudomonas aeruginosa CICC 10419 assessed as inhibition of bacterial growth incubated for 24 hrs by broth microdilution method. It counts as functional.
Assay [4] deals with Staphylococcus aureus. Briefly: Antibacterial activity against Staphylococcus aureus CICC 23656 assessed as inhibition of bacterial growth incubated for 24 hrs by broth microdilution method. Format: functional.
Assay [5] has as its system Escherichia coli. The experiment in a line: Antibacterial activity against Escherichia coli CICC 10389 assessed as inhibition of bacterial growth incubated for 24 hrs by broth microdilution method. It counts as functional.
The next assay relates to Salmonella enteritidis. The experiment in a line: Antibacterial activity against Salmonella enteritidis CICC 24119 assessed as inhibition of bacterial growth incubated for 24 hrs by broth microdilution method. It counts as functional, Salmonella enterica subsp. enterica serovar Enteritidis. The note with it: Salmonella enterica.
In assay [6] the test system is A549. Briefly: Antiproliferative activity against human A549 cells assessed as inhibition of cell growth incubated for 72 hrs by MTT assay. Format: functional, cell-based. The settings on record: A549, 72 h.
The test system of the next assay is HCT-8. The experiment in a line: Antiproliferative activity against human HCT-8 cells assessed as inhibition of cell growth incubated for 72 hrs by MTT assay. The settings on record: HCT-8, 72 h. It counts as functional, cell-based.
The subject of a further assay is Bel-7402. The experiment in a line: Antiproliferative activity against human Bel-7402 cells assessed as inhibition of cell growth incubated for 72 hrs by MTT assay. The settings on record: Bel-7402, 72 h. It counts as functional, cell-based.
In assay [7] the test system is HeLa. Briefly: Antiproliferative activity against human HeLa cells assessed as inhibition of cell growth incubated for 72 hrs by MTT assay. Format: functional, cell-based.
The target of a further assay is Chitinase B (Serratia marcescens, UniProt P11797). The experiment in a line: Inhibition of Serratia marcescens chitinase B expressed in Escherichia coli BL21(DE3) cells using MU-(GlcNAc)2 as a substrate assessed as inhibition constant incubated for 25 mins by dixon plot analysis.
In another assay the test system is Ca-Ski. The experiment in a line: Anticancer activity against human Ca-Ski cells assessed as inhibition of cell growth by Sulforhodamine B colorimetric assay. It counts as functional, cell-based.
The target of a further assay is Acetylcholinesterase (Homo sapiens, UniProt P22303). The experiment in a line: Inhibition of acetylcholinesterase (unknown origin) using acetylthiocholine iodide as substrate incubated for 10 mins by Ellman's colorimetric method.
In assay [8] the test system is Escherichia coli. The experiment in a line: Antibacterial activity against Escherichia coli assessed as inhibition of bacterial growth incubated for 24 hrs by micro broth dilution method. It counts as functional.
Another assay concerns Vibrio cholerae. The experiment in a line: Antibacterial activity against Vibrio cholerae by serial dilution method. Format: functional.
Another assay relates to Brucella abortus. Briefly: Antibacterial activity against Brucella abortus by serial dilution method. It counts as functional.

Chitinase B, sequence (P11797 whole entry): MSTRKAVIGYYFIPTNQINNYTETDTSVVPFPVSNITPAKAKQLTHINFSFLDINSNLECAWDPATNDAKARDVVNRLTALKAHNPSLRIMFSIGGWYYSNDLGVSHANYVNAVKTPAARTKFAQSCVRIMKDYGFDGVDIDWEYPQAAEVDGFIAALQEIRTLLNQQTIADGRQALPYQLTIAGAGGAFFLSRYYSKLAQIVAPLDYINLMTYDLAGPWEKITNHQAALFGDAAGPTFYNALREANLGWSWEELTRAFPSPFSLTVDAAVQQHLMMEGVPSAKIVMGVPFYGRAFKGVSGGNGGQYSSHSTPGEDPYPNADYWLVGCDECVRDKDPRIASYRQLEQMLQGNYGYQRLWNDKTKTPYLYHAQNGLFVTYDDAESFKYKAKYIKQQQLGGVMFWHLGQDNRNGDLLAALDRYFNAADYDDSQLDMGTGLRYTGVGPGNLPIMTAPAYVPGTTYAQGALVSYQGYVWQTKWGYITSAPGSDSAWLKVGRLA
Acetylcholinesterase, sequence (P22303 whole entry): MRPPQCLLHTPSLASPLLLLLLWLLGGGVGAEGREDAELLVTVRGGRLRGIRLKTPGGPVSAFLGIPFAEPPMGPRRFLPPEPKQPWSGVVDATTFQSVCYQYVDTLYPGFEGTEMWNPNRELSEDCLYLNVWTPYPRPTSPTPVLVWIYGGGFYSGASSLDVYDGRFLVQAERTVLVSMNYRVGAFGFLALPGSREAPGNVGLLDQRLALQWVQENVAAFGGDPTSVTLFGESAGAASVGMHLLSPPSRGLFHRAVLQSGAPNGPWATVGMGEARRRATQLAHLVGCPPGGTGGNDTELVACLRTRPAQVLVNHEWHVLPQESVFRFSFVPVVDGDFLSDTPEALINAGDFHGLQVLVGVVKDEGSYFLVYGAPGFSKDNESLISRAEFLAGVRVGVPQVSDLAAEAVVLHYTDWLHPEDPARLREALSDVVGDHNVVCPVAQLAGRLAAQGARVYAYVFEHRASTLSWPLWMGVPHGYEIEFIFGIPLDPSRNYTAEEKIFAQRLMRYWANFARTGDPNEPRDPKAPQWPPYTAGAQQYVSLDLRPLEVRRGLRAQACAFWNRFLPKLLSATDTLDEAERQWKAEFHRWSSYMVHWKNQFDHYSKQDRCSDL

Consider `COc1c(OC(=O)C23CC4CC(CC(C4)C2)C3)ccc2cc3[n+](cc12)CCc1cc2c(cc1-3)OCO2`, for which the inhibition at 5 µM in the assay on HEK-293T is over 90%.

Regarding `CCCCCC/C=C\C/C=C/C(=O)NCCCCCCOc1c(OC)ccc2cc3[n+](cc12)CCc1cc2c(cc1-3)OCO2`, the IC50 in the assay with HeLa [1] was found to be 3.82 µM; in the assay with HepG2, 4.42 µM; in the assay with MCF7, 3.91 µM; with PC-12, 3.77 µM; in the assay on A549 [2], 3.25 µM.

On to `CCCCCCOc1c(OC)cc(/C=C2\SC(=O)NC2=O)c2c1CN1CCc3cc4c(cc3C1C2)OCO4` (configuration not stated), for which the MIC came out at 15 µM (≈ 8.05 µg/mL) with Candida albicans and 60 µM (≈ 32.2 µg/mL) with Candida parapsilosis.

Turning to `COc1ccc2cc3[n+](cc2c1OCc1ccc(C#N)cc1)CCc1cc2c(cc1-3)OCO2`, the MIC with Streptococcus pyogenes, in the assay with Shigella dysenteriae, in the assay on Staphylococcus aureus [3], with Clostridium perfringens, in the assay on Pseudomonas aeruginosa and in the assay with Staphylococcus aureus [4] was 1.77 µM each time. Moreover, the MIC in the assay on Escherichia coli [5] and in the assay with Salmonella enteritidis was 1.77 µM throughout.

`CCCCCCN(CCCCCC)c1cc(OC)c(OC)c2c[n+]3c(cc12)-c1cc2c(cc1CC3)OCO2`: the IC50 with A549 [6], in the assay on HCT-8, in the assay with Bel-7402 and with HeLa [7] was 0.26 µM in each case.

Take `COc1ccc2cc3[n+](cc2c1OC(=O)c1ccccc1)CCc1cc2c(cc1-3)OCO2`: on Chitinase B, the Ki was determined as 0.15 µM.

For the compound `COc1ccc2cc3[n+](cc2c1OCc1ccc([N+](=O)[O-])cc1)CCc1cc2c(cc1-3)OCO2`, the MIC in the assay with Streptococcus pyogenes, in the assay with Shigella dysenteriae, in the assay on Staphylococcus aureus [3], in the assay on Clostridium perfringens, in the assay with Pseudomonas aeruginosa and in the assay with Staphylococcus aureus [4] was 1.71 µM in each case. Besides, the MIC with Escherichia coli [5] and in the assay on Salmonella enteritidis was 1.71 µM each time.

As for `COc1cc(CN2CCN(C(=O)c3ccco3)CC2)c2cc3[n+](cc2c1O)CCc1cc2c(cc1-3)OCO2`, in the assay with Ca-Ski, the CC50 turned out to be 344 µM and the IC50 was determined as 6.11 µM.

For `COc1ccc2cc3[n+](cc2c1OC(=O)C[C@@H]1C[C@H]2CC[C@@H]1C2)CCc1cc2c(cc1-3)OCO2`, the inhibition at 5 µM in the assay with HEK-293T is over 90%.

With `Oc1cc2c(cc1O)-c1cc3ccc(O)c(O)c3c[n+]1CC2`, on Acetylcholinesterase, inhibition was half-maximal at 2.3 µM (IC50).

Consider `COc1ccc2cc3[n+](cc2c1OC(=O)c1ccc(C(C)(C)C)cc1)CCc1cc2c(cc1-3)OCO2`, for which the inhibition at 5 µM in the assay on HEK-293T was over 90%.

`CCCCCN(CCCCC)c1cc(OC)c(OC)c2c1CC1c3cc4c(cc3CCN1C2)OCO4` (configuration not stated): the IC50 in the assay on A549 [6], in the assay with HCT-8, in the assay with Bel-7402 and in the assay with HeLa [7] was 9.74 µM in each case.

As for `COc1ccc2cc3[n+](cc2c1OS(=O)(=O)c1ccc(C(F)(F)F)cc1)CCc1cc2c(cc1-3)OCO2`, the inhibition at 5 µM in the assay with HEK-293T was over 90%.

In the case of `COc1cc(/C=C(\C#N)n2cc([N+](=O)[O-])nc2C)c2c(c1OCc1ccccc1F)CN1CCc3cc4c(cc3C1C2)OCO4` (configuration not stated), in the assay on Escherichia coli [8], the minimum inhibitory concentration (MIC) was determined as 3 µM (≈ 1.83 µg/mL).

As for `COc1cc(C=C(C#N)C#N)c2cc3[n+](cc2c1O)CCc1cc2c(cc1-3)OCO2.[Cl-]`, the MIC against Vibrio cholerae and against Brucella abortus was 64 µg/mL throughout.
